Laboratory results as given in patent US6906205B2, “Spiro and dispiro 1,2,4-trioxolane antimalarials” (Medicines for Malaria Venture MMV, priority 2002, dated 2005).
Values after ≈ are worked out from the molar mass of the structure shown.

Assays:
[1] = tested on: ANKA strain of P. berghei; test: single dose STI in vivo screen in infected mice; parameters: species or system Plasmodium berghei; conditions: for Activity (%) po / Activity (%) sc / Activity (%) SSVpo: percent reduction in parasitemia day 3 post-infection, mice; for Activity (%) po / Survival (days) po: single 10 mg/kg po in 3% ethanol and 7% Tween 80; for Activity (%) sc / Survival (days) sc: single 10 mg/kg sc in 3% ethanol and 7% Tween 80; for Activity (%) SSVpo: single po dose in standard suspending vehicle (SSV); for Survival (days) po / Survival (days) sc / Survival (days) SSVpo: untreated control 5.6 ± 0.3; for Survival (days) SSVpo: single po dose in SSV
Outline: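 Groups of 3-5 Moro SPF or NMRI mice infected with the ANKA strain of P. berghei received a single dose of trioxolane on day one post-infection. The compound was given in 3% ethanol and 7% Tween 80 or in SSV (0.5% w/v CMC, 0.5% v/v benzyl alcohol, 0.4% v/v Tween 80, 0.9% w/v sodium chloride in water). Antimalarial activity was scored as percent reduction in parasitemia on day three and as survival time versus untreated controls. Survival to day 30 counted as cure.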

[2] = tested on: Schistosoma mansoni 21-day-old schistosomules; test: effect on 21-day-old schistosomules in mice; format: in vivo; conditions: single 200 mg/kg per os, female mice
Description: All groups were killed 4 weeks after treatment and the liver and intestine were removed and separated. The liver and intestine were compressed and alive male and female worms could be seen and counted. The effect of the compounds was evaluated by mean total and female worm burden.

[3] = tested on: Schistosoma mansoni adult schistosomes (49-day-old); test: effect on adult schistosomes (49-day-old) in mice; format: in vivo; conditions: for % reduction of adult worms growth at day 49 after per os application of 400 mg/kg, TWR (%) / adult worms at day 49, per os 400 mg/kg, DEAD WORM (%): single 400 mg/kg per os
Description: Mice were infected with 100 Schistosoma mansoni cercariae […]. Each group was treated per os with OZ compounds at single doses of 200, 400, and 600 mg/kg. […] All groups were killed 4 weeks after treatment and the liver and intestine were removed and separated. The liver and intestine were compressed and alive male and female worms could be seen and counted.

[4] = tested on: ANKA strain of Plasmodium berghei; test: single dose ED50/ED90/ED99 determinations in infected mice; format: in vivo; conditions: single dose po in SSV, mice, percent reduction in parasitemia on day three post-infection
Description: In the single dose ED50/ED90/ED99 determinations, Moro SPF or NMRI mice (group of three) infected with the ANKA strain of Plasmodium berghei were treated on day one post-infection. […] The SSV consists of 0.5% w/v CMC, 0.5% v/v benzyl alcohol, 0.4% v/v Tween 80, and 0.9% w/v sodium chloride in water. Antimalarial activity was measured by percent reduction in parasitemia on day three post-infection. The ED50/ED90 values were calculated by nonlinear fitting.

[5] = tested on: P. falciparum K1 strain (Thailand resistant to chloroquine); test: semiautomated microdilution assay, [3H]-hypoxanthine incorporation, K1 strain; format: cell-based, Plasmodium falciparum; conditions: K1 strain, 72 h incubation; for IC50: Plasmodium falciparum, read-out: IC50 (ng/ml) K1
Outline: (§1)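 Compounds were tested against intraerythrocytic parasites taken from asynchronous stock cultures, using semiautomated microdilution. IC50 values were estimated by logit regression analysis.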

[6] = tested on: P. falciparum NF54 strain (sensitive to standard antimalarials); test: semiautomated microdilution assay, [3H]-hypoxanthine incorporation, NF54 strain; format: cell-based, Plasmodium falciparum; conditions: NF54 strain, 72 h incubation; for IC50: Plasmodium falciparum, read-out: IC50 (ng/ml) NF54
Outline: as §1

Row | Compound | Activity (%) po [1] | Activity (%) sc [1] | Activity (%) SSVpo [1] | Survival (days) po [1] | Survival (days) sc [1] | Survival (days) SSVpo [1] | ED90 [4] | ED99 [4] | IC50 (ng/ml) K1 [5] | IC50 (ng/ml) NF54 [6] | ED50 [4] | further results
1 | CC1(C)COC2(CCC3(CC2)OOC2(O3)C3CC4CC(C3)CC2C4)OC1 (stereo not drawn) [OZ11] | 99.99% | 100% | 98% | 11.4 days | 18 days | 7.4 days | 6.2 mg/kg | 8.2 mg/kg |  |  |  | % reduction of schistosomule growth at day 21 after per os application of 200 mg/kg, FWR (%) [2]: 84%; % reduction of schistosomule growth at day 21 after per os application of 200 mg/kg, TWR (%) [2]: 85%; % reduction of adult worms growth at day 49 after per os application of 400 mg/kg, TWR (%) [3]: 16%; adult worms at day 49, per os 400 mg/kg, DEAD WORM (%) [3]: 4%
2 | c1ccc(C2CCC3(CC2)OOC2(O3)C3CC4CC(C3)CC2C4)cc1 (stereo not drawn) [OZ27] | 99.97% | 99.92% | 96% | 12.6 days | 17.1 days | 8.0 days | 5.7 mg/kg | 9.9 mg/kg |  |  |  | IC50 [5]: 2.2 ng/mL (≈ 6.46 nM); IC50 [6]: 4.8 ng/mL (≈ 14.1 nM)
3 | O=C(O)CC1CCC2(CC1)OOC1(O2)C2CC3CC(C2)CC1C3 (stereo not drawn) [OZ78] | 94% | 79% | 97% | 8.7 days | 6.7 days | 7.0 days | 9.1 mg/kg | 17 mg/kg | 24 ng/mL (≈ 74.4 nM) | 42 ng/mL (≈ 130 nM) |  | % reduction of schistosomule growth at day 21 after per os application of 200 mg/kg, FWR (%) [2]: 87%; % reduction of schistosomule growth at day 21 after per os application of 200 mg/kg, TWR (%) [2]: 82%; % reduction of adult worms growth at day 49 after per os application of 200 mg/kg, TWR (%) ([3]; single 200 mg/kg per os): 24%; adult worms at day 49, per os 200 mg/kg, DEAD WORM (%) ([3]; single 200 mg/kg per os): 29%; % reduction of adult worms growth at day 49 after per os application of 400 mg/kg, TWR (%) [3]: 0%; adult worms at day 49, per os 400 mg/kg, DEAD WORM (%) [3]: 17%; % reduction of adult worms growth at day 49 after per os application of 600 mg/kg, TWR (%) ([3]; single 600 mg/kg per os): 0%; adult worms at day 49, per os 600 mg/kg, DEAD WORM (%) ([3]; single 600 mg/kg per os): 14%
4 | COCC(=O)N1CCC2(CC1)OOC1(O2)C2CC3CC(C2)CC1C3 (stereo not drawn) [OZ113] | 92% | 89% | 96% | 7.3 days | 7.3 days | 8.0 days | 9.0 mg/kg | 19 mg/kg | 0.95 ng/mL (≈ 2.82 nM) | 0.20 ng/mL (≈ 0.593 nM) | 3.6 mg/kg | 
5 | O=C(NO)[C@H]1CC[C@@]2(CC1)OOC1(O2)C2CC3CC(C2)CC1C3 (stereo partly drawn) [OZ127] | 95% | 97% | 98% | 7.0 days | 7.7 days | 7.7 days | 7.6 mg/kg | 19 mg/kg | 0.61 ng/mL (≈ 1.89 nM) | 1.3 ng/mL (≈ 4.02 nM) | 2.5 mg/kg | 
6 | c1ccc(C[C@H]2CC[C@]3(CC2)OOC2(O3)C3CC4CC(C3)CC2C4)cc1 (stereo partly drawn) [OZ156] | 99.98% | 99.98% | 98.8% | 17.0 days | 19.7 days | 10.3 days | 2.6 mg/kg | 4.7 mg/kg | 2.1/2.1 ng/ml | 2.1/2.1 ng/ml | 1.3 mg/kg | % reduction of schistosomule growth at day 21 after per os application of 200 mg/kg, FWR (%) [2]: 72%; % reduction of schistosomule growth at day 21 after per os application of 200 mg/kg, TWR (%) [2]: 75%; % reduction of adult worms growth at day 49 after per os application of 400 mg/kg, TWR (%) [3]: 0%; adult worms at day 49, per os 400 mg/kg, DEAD WORM (%) [3]: 6%
7 | c1ncn(C[C@H]2CC[C@]3(CC2)OOC2(O3)C3CC4CC(C3)CC2C4)n1 (stereo partly drawn) [OZ177] |  |  |  |  |  | 12.7 days | 3.7 mg/kg | 5.8 mg/kg |  |  |  | IC50 [5]: 0.9 ng/mL (≈ 2.61 nM); IC50 [6]: 1.7 ng/mL (≈ 4.92 nM)
8 | c1cn(C[C@H]2CC[C@]3(CC2)OOC2(O3)C3CC4CC(C3)CC2C4)cn1 (stereo partly drawn) [OZ179] |  |  | 99.78% |  |  | 10.3 days | 3.3 mg/kg | 6.6 mg/kg | 1.3 ng/mL (≈ 3.77 nM) | 1.1 ng/mL (≈ 3.19 nM) | 1.4 mg/kg | Activity (%) po ([1]; 10 mg/kg): 99.91%; Activity (%) sc ([1]; 10 mg/kg): 99.91%; Survival (days) po ([1]; 10 mg/kg): 11.3 days; Survival (days) sc ([1]; 10 mg/kg): 11.3 days
9 | c1cn(CC[C@H]2CC[C@]3(CC2)OOC2(O3)C3CC4CC(C3)CC2C4)cn1 (stereo partly drawn) [OZ219] | 99.89% | 99.91% | 99.82% | 8.7 days | 9.3 days | 8.0 days | 3.0 mg/kg | 5.2 mg/kg | 0.85 ng/mL (≈ 2.37 nM) | 1.6 ng/mL (≈ 4.46 nM) | 1.6 mg/kg | 
10 | CN1CCN(C(=O)C[C@H]2CC[C@]3(CC2)OOC2(O3)C3CC4CC(C3)CC2C4)CC1 (stereo partly drawn) [OZ227] | 99.68% | 99.84% | 99.90% | 8.3 days | 10.7 days | 9.3 days | 4.0 mg/kg | 6.2 mg/kg | 0.20/0.20 ng/ml | 0.20/0.20 ng/ml | 2.3 mg/kg | 
11 | c1ncn(C[C@H]2CC[C@]3(CC2)OOC2(O3)C3CC4CC(C3)CC2C4)n1 (stereo partly drawn) [OZ235] | 99.92% | 97% | 99.97% | 8.7 days | 8.0 days | 9.0 days | 7.1 mg/kg | 11 mg/kg | 1.0 ng/mL (≈ 2.89 nM) | 2.0 ng/mL (≈ 5.79 nM) | 4.0 mg/kg | 
